Data: US20100086483A1, “METHOD OF MULTIDETECTOR COMPUTED TOMAGRAPHY” (Gilead Palo Alto, Inc., priority 2008, published 2010)

Key:
[1] = system: normal subjects; assay: Safety and tolerability of regadenoson with and without prior caffeine; type: in vivo, human
Method: 15O water was used as the radionuclide in the PET scans. There was a 1- to 14-day washout period between dosing days. Blood samples and measures of safety were collected until 120 minutes after study drug administration.
Safety measures included adverse events (AEs), serious adverse events, vital signs (HR and BP), ECG, concomitant medications, and a tolerability questionnaire. All available data from subjects who received the single dose of regadenoson were to be included in the statistical summaries.
ECG intervals and changes from baseline values in ECG intervals were to be presented, as were occurrences of rhythm or conduction abnormalities. Concomitant medication usage was to be summarized.
Tolerability questionnaire responses were to be analyzed using the Wilcoxen rank sum test (“How did you feel?” question) and the exact Cochran-Mantel-Haenszel test (Day 2-only question “How did this test compare to the first test?”).

[2] = system: conscious dogs; assay: Effects of caffeine on regadenoson-induced coronary vasodilation and changes in hemodynamics in conscious dogs (Part II); type: in vivo, dog
Method: Sixteen chronically instrumented male mongrel dogs weighing from 22-30 kg were used in the study. The animal protocol was approved by the Institutional Animal Care and Use Committee of New York Medical College and conforms to the Guide for the Care and Use of Laboratory Animal by the United States National Institutes of Health.
Dogs were sedated with acepromazine (0.3 mg/kg, IM) and anesthetized with pentobarbital sodium (25 mg/kg, IV). After intubation, dogs were artificially ventilated with room air. A thoracotomy was made in the fifth intercostal space using sterile techniques. A Tygon catheter (Cardiovascular Instruments, Wakefield, Mass.) was inserted into the descending thoracic aorta and another one was inserted into the left atrium. In 9 dogs, an ultrasound flow transducer (Transonic Systems, Ithaca, N.Y.) was placed around the left circumflex coronary artery. A solid-state pressure gauge (P6.5, Konisberg Instruments, Pasadena, Calif.) was placed into the left ventricle through the apex. The chest was closed in layers. The catheters and wires were tunneled subcutaneously and externalized through the skin at the back of the dog's neck. Dogs were allowed to recover from the surgery before experiments were performed, and were trained to lie on a table.
Phasic arterial pressure was measured by connecting the aortic catheter to a strain gauge transducer (P23 ID, LDS Test and Measurement, Valley View, Ohio). Left ventricular pressures were measured by the solid pressure gauge. CBF (mL/min) was measured from an ultrasound flow transducer using a Transonic flowmeter (T206, Transonic Systems, Ithaca, N.Y.). Two indices were used to describe the regadenoson-induced coronary vasodilation: 1) the maximum increase in CBF and 2) the duration of the 2-fold increase in CBF (the period of time that CBF was elevated to a level ≧2-fold of baseline CBF). All pressure and flow data were acquired and analyzed using a Ponemah System (Version 3.30 or 4.20, LDS Test and Measurement, Valley View, Ohio). MAP and HR were calculated from phasic blood pressure, and LV dP/dtMax was calculated from the left ventricular systolic pressure.
On the day of an experiment, a dog was placed on a table, where it lay quietly during the experiment. A catheter was inserted into a peripheral vein in the leg and attached to an infusion line to administer drugs without disturbing the dog. The experiment was begun after MAP, HR and CBF were stable.
Each dog received an IV injection of 5 μg/kg of regadenoson. […] LVSP, LV dP/dtMax, MAP, HR and CBF were recorded continuously. Blood samples were taken from the left atrial catheter at 1, 3, 5, 15, 30, 45 and 60 min following injections of regadenoson.
In 4 dogs, two doses of regadenoson (5 μg/kg, IV) were given 90 min apart (without blood sampling) to determine if there is tachyphylaxis of regadenoson-induced coronary vasodilation.
The statistical significance of a difference between the value of a parameter at baseline and at the indicated time point after drug administration was determined using a One-Way Repeated Measures ANOVA followed by Tukey's Test. […] Results with p<0.05 were considered to be significant. […] All data are presented as Mean±SEM.

[3] = regadenoson 400 μg IV, 25/43 subjects
[4] = regadenoson 5 μg/kg IV in the presence of caffeine 1 mg/kg
[5] = regadenoson 5 μg/kg IV in the presence of caffeine 2 mg/kg
[6] = regadenoson 5 μg/kg IV in the presence of caffeine 4 mg/kg
[7] = regadenoson 5 μg/kg IV in the presence of caffeine 10 mg/kg
[8] = regadenoson 5 μg/kg IV without caffeine (control of caffeine 1 mg/kg group), 0.5 min
[9] = regadenoson 5 μg/kg IV without caffeine (control of caffeine 1 mg/kg group), 1 min
[10] = regadenoson 5 μg/kg IV without caffeine (control of caffeine 1 mg/kg group), 2 min
[11] = regadenoson 5 μg/kg IV without caffeine (control of caffeine 1 mg/kg group), 3 min
[12] = regadenoson 5 μg/kg IV without caffeine (control of caffeine 1 mg/kg group), 4 min
[13] = regadenoson 5 μg/kg IV without caffeine (control of caffeine 1 mg/kg group), 5 min
[14] = regadenoson 5 μg/kg IV without caffeine (control of caffeine 1 mg/kg group), 10 min
[15] = regadenoson 5 μg/kg IV without caffeine (control of caffeine 1 mg/kg group), 15 min
[16] = regadenoson 5 μg/kg IV without caffeine (control of caffeine 1 mg/kg group), 20 min
[17] = regadenoson 5 μg/kg IV without caffeine (control of caffeine 2 mg/kg group), 0.5 min
[18] = regadenoson 5 μg/kg IV without caffeine (control of caffeine 2 mg/kg group), 1 min
[19] = regadenoson 5 μg/kg IV without caffeine (control of caffeine 2 mg/kg group), 2 min

CNC(=O)c1cnn(-c2nc(N)c3ncn([C@@H]4O[C@H](CO)[C@@H](O)[C@H]4O)c3n2)c1 [Regadenoson, (1-{9-[(4S,2R,3R,5R)-3,4-dihydroxy-5-(hydroxymethyl)oxolan-2-yl]-6-aminopurin-2-yl}pyrazol-4-yl)-N-methylcarboxamide]
AE sensation of heaviness, percentage of subjects ([1]; regadenoson 400 μg IV): 28% | QTc prolongation (>500 msec and change of >60 msec) by ECG analysis after regadenoson dosing ([1]; regadenoson 400 μg IV): one subject | first degree AV block by ECG analysis after regadenoson dosing ([1]; regadenoson 400 μg IV): one subject | deaths or SAEs ([1]; regadenoson 400 μg IV with and without caffeine): no reported deaths or SAEs | patients with at least one AE considered possibly related to regadenoson treatment ([1]; regadenoson 400 μg IV, 1/43): 2% | AEs: ear and labyrinth disorders, percentage of subjects ([1]; regadenoson 400 μg IV, 1/43 subjects): 2% | AEs: gastrointestinal disorders, percentage of subjects ([1]; regadenoson 400 μg IV, 2/43 subjects): 5% | subjects with at least one AE with a maximum severity of severe ([1]; regadenoson 400 μg IV, 4/43): 9% | AE paraesthesia, percentage of subjects ([1]; regadenoson 400 μg IV, 8/43): 19% | AEs: general disorders and administration site conditions, percentage of subjects ([1]; regadenoson 400 μg IV, 11/43 subjects): 26% | AE headache, percentage of subjects ([1]; regadenoson 400 μg IV, 12/43): 28% | AEs: musculoskeletal and connective tissue disorders, percentage of subjects ([1]; regadenoson 400 μg IV, 12/43 subjects): 28% | AE flushing, percentage of subjects ([1]; regadenoson 400 μg IV, 13/43): 30% | AEs: vascular disorders, percentage of subjects ([1]; regadenoson 400 μg IV, 13/43 subjects): 30% | AEs: nervous system disorders, percentage of subjects ([1]; regadenoson 400 μg IV, 18/43 subjects): 42% | AE palpitations, percentage of subjects ([1]; regadenoson 400 μg IV, 21/43): 49% | subjects with at least one AE with a maximum severity of moderate ([1]; regadenoson 400 μg IV, 21/43): 49% | AE dyspnoea, percentage of subjects ([1]; regadenoson 400 μg IV, 24/43): 56% | AEs: cardiac disorders, percentage of subjects [1, 3]: 58% | AEs: respiratory, thoracic and mediastinal disorders, percentage of subjects [1, 3]: 58% | subjects with at least one AE with a maximum severity of mild ([1]; regadenoson 400 μg IV, forty percent): 17/43 | subjects with at least one AE considered probably related to regadenoson treatment ([1]; regadenoson 400 μg IV, ninety-five percent): 41/43 | time regadenoson-increased CBF remained at ≧2-fold baseline levels ([2]; in the presence of 1, 2 and 4 mg/kg caffeine): ≥ 3 min | decrease in LVSP from baseline [2, 4]: 9±3% | peak decrease in MAP from baseline [2, 4]: 13±2% | decrease in LVSP from baseline [2, 5]: 6±2% | peak decrease in MAP from baseline [2, 5]: 13±1% | decrease in LVSP from control (p>0.05) [2, 6]: 1±5% | peak decrease in MAP from baseline [2, 6]: 2±5% | increase in LVSP from control [2, 7]: 11±7% | increase in MAP from baseline (insignificant) [2, 7]: 9±6% | peak increase in HR from baseline ([2]; regadenoson 5 μg/kg IV with caffeine 1 mg/kg): 124±12% | peak increase in HR from baseline ([2]; regadenoson 5 μg/kg IV with caffeine 2 mg/kg): 109±21% | peak increase in HR from baseline ([2]; regadenoson 5 μg/kg IV with caffeine 4 mg/kg): 79±20% | peak increase in HR from baseline ([2]; regadenoson 5 μg/kg IV with caffeine 10 mg/kg): 74±16% | HR [2, 8]: 138 ± 10 bpm | MAP [2, 8]: 97 ± 2 mm Hg | HR [2, 9]: 144 ± 13 bpm | MAP [2, 9]: 93 ± 3 mm Hg | HR [2, 10]: 142 ± 9 bpm | MAP [2, 10]: 92 ± 4 mm Hg | HR [2, 11]: 131 ± 9 bpm | MAP [2, 11]: 92 ± 3 mm Hg | HR [2, 12]: 125 ± 8 bpm | MAP [2, 12]: 94 ± 3 mm Hg | HR [2, 13]: 121 ± 8 bpm | MAP [2, 13]: 96 ± 3 mm Hg | HR [2, 14]: 100 ± 7 bpm | MAP [2, 14]: 97 ± 4 mm Hg | HR [2, 15]: 94 ± 7 bpm | MAP [2, 15]: 96 ± 4 mm Hg | HR [2, 16]: 89 ± 7 bpm | MAP [2, 16]: 96 ± 3 mm Hg | HR [2, 17]: 160 ± 13 bpm | MAP [2, 17]: 89 ± 5 mm Hg | HR [2, 18]: 145 ± 7 bpm | MAP [2, 18]: 89 ± 5 mm Hg | HR [2, 19]: 150 ± 4 bpm | MAP [2, 19]: 91 ± 5 mm Hg
